Test system: HL60 MDR tumor
Test: tumor volume of HL60 MDR tumor implanted in nude mice
Type: in vivo
Details: for tumor volume: 200 ug Etomoxir, 2.5 mM 2-Deoxy-D-glucose
Source text: Tumor implantation. Mice were purchased from the Animal Production Program of National Cancer Institute, Frederick, Md. The animals used were Athymic Ncr-nu/nu (strain code 01B74). HL60 MDR cells were harvested and reconstituted at 1 million cells per 100 microliters of phosphate buffered saline. One million tumor cells per injection site were implanted subcutaneously on two sites of the animal's back. Treatments began at exactly seven days post tumor implantation. Tumor size/volume was monitored twice weekly using measurement calipers, with the formula Tumor Volume=π×(short diameter)^2×(long diameter)/6.
Mice experiments with fatty acid metabolism and glucose metabolism inhibitors. Fatty acid metabolism inhibitors were exemplified by etomoxir at 200 micrograms/day. Glucose metabolism inhibitors were exemplified by 2-deoxy-D-glucose at 2.5 mM in 100 microliters daily. The combination was administered daily, etomoxir at 200 micrograms and 2-deoxy-D-glucose at 2.5 mM in 100 microliters. All drugs were administered intra-peritoneally. Fluorouracil, at 20 mg per kilogram mouse, was injected intra-peritoneally once a week
HL60 MDR human leukemia cells were cultured and implanted in nude mice as described above under “Materials and Methods”. The mice were given 200 ug of Etomoxir, 2.5 mM 2-Deoxy-D-glucose, or both 200 ug of Etomoxir and 2.5 mM 2-Deoxy-D-glucose given daily by IP injection. Treatment began exactly one week after tumor implantation.
Mice were purchased from National Cancer Institute, Animal Production Program (Frederick, Md.). The animals used were Athymic Ncr-nu/nu (Strain code 01B74). HL60 MDR cells were harvested and reconstituted at 1 million cells per 100 microliters of phosphate buffered saline. One million tumor cells/per injection site were implanted subcutaneously on two sites of the animal's back. Treatments began at exactly seven days post tumor implantation. Tumor size/volume was monitored twice weekly using measurement calipers with the formula for Tumor Volume=π(short diameter)^2(long diameter)/(divided by )6. […]

CCOC(=O)C1(CCCCCCOc2ccc(Cl)cc2)CO1 (centres unmarked) [etomoxir, 2-(6-(4-chlorophenoxy)-hexyl)-oxirane-2-carboxylic acid ethyl ester] was tested. Which tumor volume (Day 7, daily IP from one week after implantation) did it give?
The tumor volume was 36 mm^3.

And the tumor volume (Day 9, daily IP)?
Its tumor volume is 71.73 mm^3.

What about the tumor volume (Day 15, daily IP) of the same compound?
The tumor volume was 261.35 mm^3.

What about the tumor volume (Day 21, daily IP) of the same compound?
Its tumor volume is 895.09 mm^3.

What about the “effect on tumor growth” value (HL60 MDR in nude mice, 21 day period, single agent) of the same compound?
Its value is “increase in tumor growth”.

Source: patent publication US8293240B2, “Method of treating drug-resistant cancer” (The Regents of the University of Colorado, priority 2004, dated 2012)
